The structures appear in SMILES notation.

Sequence of HDM2 (truncated, residues 17 to 125, containing p53 binding surface) (Q00987 17-125): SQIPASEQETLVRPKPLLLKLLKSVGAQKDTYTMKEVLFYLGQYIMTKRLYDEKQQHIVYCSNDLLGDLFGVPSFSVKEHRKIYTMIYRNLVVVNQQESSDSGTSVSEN

The target in one test is HDM2 (truncated, residues 17 to 125, containing p53 binding surface) (Homo sapiens (Human), UniProt Q00987). Briefly: HDM2 FRET assay (inhibition of binding of FITC labeled p53-site peptide to HDM2). The settings on record: Table 16. An excerpt:
IC50 DETERMINATIONS: Dose-response curves were plotted from the inhibition data, from 10 point serial dilutions of inhibitory compounds. Concentration of compound was plotted against em520/Cem495 ratio signal. To generate IC50 values, the dose-response curves were fitted to a standard sigmoidal curve and IC50 values were derived by nonlinear regression analysis.
A word on the IC50: it is the concentration that inhibits the measured activity by half. High values mean weaker potency, low ones greater potency. Compound `C[C@H]1CC[C@H](Cn2c(N3CCCC4COCCC43)nc3nc(-c4n[nH]c(=O)o4)nc(-c4cccc(Cl)c4)c32)CC1` (single isomer, unassigned) [Example 16.125, 5-{6-(3-chlorophenyl)-8-(hexahydro-2H-pyrano[4,3-b]pyridin-1(5H)-yl)-7-[(trans-4-methylcyclohexyl)methyl]-7H-purin-2-yl}-1,3,4-oxadiazol-2(3H)-one] showed an IC50 of 56.7 nM.
`C[C@H]1CC[C@H](Cn2c(N3CCCC4COCCC43)nc3nc(-c4n[nH]c(=O)o4)nc(-c4cncc(Cl)c4)c32)CC1` (single isomer, unassigned) [Example 16.123, 5-{6-(5-chloropyridin-3-yl)-8-(hexahydro-2H-pyrano[4,3-b]pyridin-1(5H)-yl)-7-[(trans-4-methylcyclohexyl)methyl]-7H-purin-2-yl}-1,3,4-oxadiazol-2(3H)-one] gave an IC50 of 59.1 nM.
Take `Cc1nnc(C2CCCN2c2nc3nc(-c4noc(=O)[nH]4)nc(-c4cncc(Cl)c4)c3n2C[C@H]2CC[C@H](C)CC2)o1` (mixture of isomers) [Example 16.141, 3-{6-(5-chloropyridin-3-yl)-7-[(trans-4-methylcyclohexyl)methyl]-8-[2-(5-methyl-1,3,4-oxadiazol-2-yl)pyrrolidin-1-yl]-7H-purin-2-yl}-1,2,4-oxadiazol-5(4H)-one]: the half-inhibitory concentration (IC50) came to 26.8 nM.
Still for that read-out and setting: the figure for `C[C@H]1CC[C@H](Cn2c(N3CCCC4COCCC43)nc3nc(-c4noc(=O)[nH]4)nc(-c4cccc(Cl)c4)c32)CC1` (single isomer, unassigned) [Example 16.119, 3-{6-[3-chlorophenyl)-8-(hexahydro-2H-pyrano[4,3-b]pyridin-1(5H)-yl)-7-[(trans-4-methylcyclohexyl)methyl]-7H-purin-2-yl}-1,2,4-oxadiazol-5(4H)-one] is 60.9 nM.

The same test, now with this note: Table 18.
`CC([C@H]1CC[C@H](C)CC1)n1c(N2CCOC3CCCC32)nc2nc(-c3n[nH]c(=O)o3)nc(-c3cccc(Cl)c3)c21` (single isomer, unassigned) [Example 18.43, 5-{6-(3-chlorophenyl)-8-(hexahydrocyclopenta[b][1,4]oxazin-4(4aH)-yl)-7-[1-(trans-4-methylcyclohexyl)ethyl]-7H-purin-2-yl}-1,3,4-oxadiazol-2(3H)-one]: the IC50 was determined as 14 nM.
`CC([C@H]1CC[C@H](C)CC1)n1c(N2CCOC3CCCC32)nc2nc(-c3noc(=O)[nH]3)nc(-c3cccc(Cl)c3)c21` (single isomer, unassigned) [Example 18.37, 3-{6-(3-chlorophenyl)-8-(hexahydrocyclopenta[b][1,4]oxazin-4(4aH)-yl)-7-[1-(trans-4-methylcyclohexyl)ethyl]-7H-purin-2-yl}-1,2,4-oxadiazol-5(4H)-one]: the IC50 was determined as 2.21 nM.

The same test, now with this note: Table 23.
With `COC(c1nc2nc(-c3noc(=O)[nH]3)nc(-c3cncc(Cl)c3)c2n1C[C@H]1CC[C@H](C)CC1)C1CCCC1` (mixture of isomers) [Example 23.61, 3-{6-(5-chloropyridin-3-yl)-8-[cyclopentyl(methoxy)methyl]-7-[(trans-4-methylcyclohexyl)methyl]-7H-purin-2-yl}-1,2,4-oxadiazol-5(4H)-one], the IC50 was 4.64 nM.
Consider `COC(C)(c1ccccn1)c1nc2nc(-c3n[nH]c(=O)o3)nc(-c3cccc(Cl)c3)c2n1C[C@H]1CC[C@H](C)CC1` (single isomer, unassigned) [Example 23.54, 5-{6-(3-chlorophenyl)-8-(1-methoxy-1-pyridin-2-ylethyl)-7-[(trans-4-methylcyclohexyl)methyl]-7H-purin-2-yl}-1,3,4-oxadiazol-2(3H)-one], for which the half-maximal inhibitory concentration (IC50) stood at 13.6 nM.
On the same count and under the same terms, the figure for `COCC(C)(F)c1nc2nc(-c3n[nH]c(=O)o3)nc(-c3cncc(Cl)c3)c2n1C[C@H]1CC[C@H](C)CC1` (mixture of isomers) [Example 23.106, 5-{6-(5-chloropyridin-3-yl)-8-(1-fluoro-2-methoxy-1-methylethyl)-7-[(trans-4-methylcyclohexyl)methyl]-7H-purin-2-yl}-1,3,4-oxadiazol-2(3H)-one] is 3.93 nM; for `CC(F)(c1ccccc1F)c1nc2nc(-c3noc(=O)[nH]3)nc(-c3cncc(Cl)c3)c2n1C[C@H]1CC[C@H](C)CC1` (single isomer, unassigned) [Example 23.35, 3-{6-(5-chloropyridin-3-yl)-8-[1-fluoro-1-(2-fluorophenyl)ethyl]-7-[(trans-4-methylcyclohexyl)methyl] 7H-purin-2-yl}-1,2,4-oxadiazol-5(4H)-one] it is 0.424 nM; for `CC(F)(c1ccccn1)c1nc2nc(-c3n[nH]c(=O)o3)nc(-c3cccc(Cl)c3)c2n1C[C@H]1CC[C@H](C)CC1` (single isomer, unassigned) [Example 23.36, 5-{6-(3-chlorophenyl)-8-[1-fluoro-1-(pyridin-2-yl)ethyl]-7-[(trans-4-methylcyclohexyl)methyl]-7H-purin-2-yl}-1,3,4-oxadiazol-2(3H)-one] it is 9.68 nM.
Regarding `COC(C)(c1cccc(Cl)c1F)c1nc2nc(-c3n[nH]c(=O)o3)nc(-c3cncc(Cl)c3)c2n1C[C@H]1CC[C@H](C)CC1` (single isomer, unassigned) [Example 23.74, 5-{8-[1-(3-chloro-2-fluorophenyl)-1-methoxyethyl]-6-(5-chloropyridin-3-yl)-7-[(trans-4-methylcyclohexyl)methyl]-7H-purin-2-yl}-1,3,4-oxadiazol-2(3H)-one], the half-maximal inhibitory concentration (IC50) came to 17.8 nM.
Same read-out and setting: in the case of `CC(F)(c1ccccc1C#N)c1nc2nc(-c3noc(=O)[nH]3)nc(-c3cncc(Cl)c3)c2n1C[C@H]1CC[C@H](C)CC1` (mixture of isomers) [Example 23.110, 2-{1-[6-(5-chloropyridin-3-yl)-7-[(trans-4-methylcyclohexyl)methyl]-2-(5-oxo-4,5-dihydro-1,2,4-oxadiazol-3-yl)-7H-purin-8-yl]-1-fluoroethyl}benzonitrile] it was 0.515 nM.
In turn, `COC(C)(c1c(F)cccc1F)c1nc2nc(-c3noc(=O)[nH]3)nc(-c3cncc(Cl)c3)c2n1C[C@H]1CC[C@H](C)CC1` (single isomer, unassigned) [Example 23.93, 3-{6-(5-chloropyridin-3-yl)-8-[1-(2,6-difluorophenyl)-1-methoxyethyl]-7-[(trans-4-methylcyclohexyl)methyl]-7H-purin-2-yl}-1,2,4-oxadiazol-5(4H)-one] came in with a half-maximal inhibitory concentration (IC50) of 0.452 nM.
Same read-out and setting: in the case of `CC1COCCC1(F)c1nc2nc(-c3noc(=O)[nH]3)nc(-c3cncc(Cl)c3)c2n1C[C@H]1CC[C@H](C)CC1` (single isomer, unassigned) [Example 23.94, 3-{6-(5-chloropyridin-3-yl)-8-(4-fluoro-3-methyltetrahydro-2H-pyran-4-yl)-7-[(trans-4-methylcyclohexyl)methyl]-7H-purin-2-yl}-1,2,4-oxadiazol-5(4H)-one] it was 23.4 nM.
Compound `CC(F)(c1ncccc1F)c1nc2nc(-c3n[nH]c(=O)o3)nc(-c3cncc(Cl)c3)c2n1C[C@H]1CC[C@H](C)CC1` (single isomer, unassigned) [Example 23.84, 5-{6-(5-chloropyridin-3-yl)-8-[1-fluoro-1-(3-fluoropyridin-2-yl)ethyl]-7-[(trans-4-methylcyclohexyl)methyl]-7H-purin-2-yl}-1,3,4-oxadiazol-2(3H)-one] displayed a half-maximal inhibitory concentration (IC50) of 16.5 nM.
In turn, `CC(F)(c1ccccc1F)c1nc2nc(-c3noc(=O)[nH]3)nc(-c3cncc(Cl)c3)c2n1C[C@H]1CC[C@H](C)CC1` (single isomer, unassigned) [Example 23.34, 3-{6-(5-chloropyridin-3-yl)-8-[1-fluoro-1-(2-fluorophenyl)ethyl]-7-[(trans-4-methylcyclohexyl)methyl]-7H-purin-2-yl}-1,2,4-oxadiazol-5(4H)-one] came in with a half-maximal inhibitory concentration (IC50) of 9.3 nM.
The same measure, in the same setting: the figure for `COC(C)(c1ccccc1F)c1nc2nc(-c3noc(=O)[nH]3)nc(-c3cncc(Cl)c3)c2n1C[C@H]1CC[C@H](C)CC1` (single isomer, unassigned) [Example 23.50, 3-{6-(5-chloropyridin-3-yl)-8-[1-(2-fluorophenyl)-1-methoxyethyl]-7-[(trans-4-methylcyclohexyl)methyl]-7H-purin-2-yl}-1,2,4-oxadiazol-5(4H)-one] is 6.55 nM.
On the same count and under the same terms, in the case of `CC(F)(c1ccccn1)c1nc2nc(-c3n[nH]c(=O)o3)nc(-c3cccc(Cl)c3)c2n1C[C@H]1CC[C@H](C)CC1` (single isomer, unassigned) [Example 23.37, 5-{6-(3-chlorophenyl)-8-[1-fluoro-1-(pyridin-2-yl)ethyl]-7-[{trans-4-methylcyclohexyl)methyl]-7H-purin-2-yl}-1,3,4-oxadiazol-2(3H)-one] it was 9.65 nM; in that of `CC(F)(c1ccccc1F)c1nc2nc(-c3n[nH]c(=O)o3)nc(-c3cncc(Cl)c3)c2n1C[C@H]1CC[C@H](C)CC1` (single isomer, unassigned) [Example 23.32, 5-{6-(5-chloropyridin-3-yl)-8-[1-fluoro-1-(2-fluorophenyl)ethyl]-7-[(trans-4-methylcyclohexyl)methyl]-7H-purin-2-yl}-1,3,4-oxadiazol-2(3H)-one], 16 nM; in that of `COc1ccccc1C(C)(F)c1nc2nc(-c3noc(=O)[nH]3)nc(-c3cncc(Cl)c3)c2n1C[C@H]1CC[C@H](C)CC1` (single isomer, unassigned) [Example 23.27, 3-{6-(5-chloropyridin-3-yl)-8-[1-fluoro-1-(2-methoxyphenyl)ethyl]-7-[(trans-4-methylcyclohexyl)methyl]-7H-purin-2-yl}-1,2,4-oxadiazol-5(4H)-one], 1.62 nM.
Same read-out and setting: in the case of `CC(F)(c1ncccc1F)c1nc2nc(-c3noc(=O)[nH]3)nc(-c3cncc(Cl)c3)c2n1C[C@H]1CC[C@H](C)CC1` (single isomer, unassigned) [Example 23.98, 3-{6-(5-chloropyridin-3-yl)-8-[1-fluoro-1-(3-fluoropyridin-2-yl)ethyl]-7-[(trans-4-methylcyclohexyl)methyl]-7H-purin-2-yl}-1,2,4-oxadiazol-5(4H)-one] it was 9.74 nM.

Values taken from patent publication US9540377B2, “2,6,7,8 substituted purines as HDM2 inhibitors” (Merck Sharp & Dohme Corp., priority 2013, dated 2017).
